Experimental data taken from ChEMBL document CHEMBL1201862, “PubChem BioAssay data set” (2004).
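48-hour exposure; five concentrations; linearly interpolated endpoints. Abbreviation: GI50, concentration required for 50% inhibition of growth.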 The source made the active and inactive calls. Cut-off read from the data, not from the text of the source: active = GI50 up to about 1.1 µM and inactive = higher.

Key:
Assay in all cases: growth of human tumour cells (NCI), 48 h
[1] = test system: UO-31
[2] = test system: RPMI-8226
[3] = test system: NCI-H226
[4] = test system: NCI-H522
[5] = test system: SR
[6] = test system: SNB-19
[7] = test system: U-251
[8] = test system: OVCAR-3
[9] = test system: ACHN
[10] = test system: HCT-116
[11] = test system: HCC 2998
[12] = test system: COLO 205
[13] = test system: CCRF-CEM
[14] = test system: OVCAR-4
[15] = test system: KM12
[16] = test system: EKVX
[17] = test system: HOP-92

Measured: GI50

COC(=O)c1c(OC(=O)c2ccccc2)noc1CC(=O)OC1C=CCCC1 (configuration not stated)
inactive: [1] 66.4 µM | [2] > 100 µM | [3] > 100 µM | [4] 45.4 µM | [5] > 100 µM | [6] > 100 µM | [7] > 100 µM | [8] > 100 µM | [9] > 100 µM | [10] > 100 µM | [11] > 100 µM | [12] > 100 µM | [13] 80 µM | [14] > 100 µM | [15] > 100 µM

CC1=C(c2cc(C(=O)Nc3cc(C)ccc3C)nc(N)n2)Sc2ccccc2N1
inactive: [1] > 100 µM | [2] > 100 µM | [3] > 100 µM | [4] > 100 µM | [5] 65.8 µM | [6] > 100 µM | [16] > 100 µM | [7] > 100 µM | [8] > 100 µM | [17] > 100 µM | [9] > 100 µM | [10] > 100 µM | [11] > 100 µM | [12] > 100 µM | [13] > 100 µM | [14] > 100 µM | [15] > 100 µM

COC1=CC(=Nc2c(Cl)cc(Cl)cc2OC(=O)c2ccc([N+](=O)[O-])cc2)C=C(OC)C1=O
inactive: [1] 11.9 µM | [2] 5.04 µM | [3] 15.2 µM | [4] 9.23 µM | [5] 3.22 µM | [6] 16.4 µM | [16] 16 µM | [7] 13.8 µM | [8] 8.67 µM | [17] 5.62 µM | [9] 10.7 µM | [10] 6.53 µM | [11] 18.2 µM | [12] 17.5 µM | [13] 2.87 µM | [14] 10 µM | [15] 15.5 µM

C/N=C1\CC2c3cc(OC)c(OC)cc3CCN2C2=C1C(=O)CC(C)(C)C2 (configuration not stated)
inactive: [1] > 100 µM | [3] > 100 µM | [4] > 100 µM | [5] > 100 µM | [6] > 100 µM | [16] > 100 µM | [7] > 100 µM | [8] > 100 µM | [17] > 100 µM | [9] > 100 µM | [10] > 100 µM | [11] > 100 µM | [12] > 100 µM | [13] > 100 µM | [15] > 100 µM

CCOc1ccccc1/N=C(/NC(=O)CC)SC
inactive: [1] > 10 µM | [2] 95.9 µM | [3] > 10 µM | [4] > 10 µM | [5] > 10 µM | [6] > 10 µM | [16] > 10 µM | [7] > 10 µM | [8] > 10 µM | [17] > 10 µM | [9] > 10 µM | [10] 81.1 µM | [11] > 10 µM | [12] > 10 µM | [13] 64.6 µM | [14] 85.1 µM | [15] > 10 µM

O=c1/c(=C/c2cccc3ccccc23)sc2nc3ccccc3n12
inactive: [1] > 100 µM | [3] > 100 µM | [4] > 100 µM | [6] > 100 µM | [16] > 100 µM | [7] > 100 µM | [8] > 100 µM | [17] > 100 µM | [9] > 100 µM | [10] > 100 µM | [11] > 100 µM | [12] > 100 µM | [14] > 100 µM | [15] > 100 µM

COC(=O)Nc1nc2cc(Br)ccc2[nH]1
inactive: [1] > 100 µM | [2] 51.9 µM | [3] > 100 µM | [4] 14.4 µM | [5] 6.44 µM | [6] > 10 µM | [16] > 100 µM | [7] 22.8 µM | [8] 28.5 µM | [17] > 100 µM | [9] 95.5 µM | [10] 57 µM | [11] 33.6 µM | [12] 23.8 µM | [13] 32.2 µM | [14] > 100 µM | [15] 9.29 µM

Cc1ccc([N+](=O)[O-])cc1NC(=O)/C(=N/NC(=S)NN)C1SC(=S)NC1=O (configuration not stated)
inactive: [1] > 100 µM | [2] > 100 µM | [3] > 100 µM | [4] > 100 µM | [5] > 100 µM | [6] > 100 µM | [16] > 100 µM | [7] > 100 µM | [17] > 100 µM | [9] > 100 µM | [10] > 100 µM | [12] > 100 µM | [13] 40.2 µM | [14] > 100 µM | [15] > 100 µM

CCn1c2c(c3ccccc31)[C@@H](c1ccc(Cl)cc1)CC1C(=O)N(c3ccccc3)C(=O)C21 (some centres not stated)
inactive: [1] > 100 µM | [2] 65 µM | [3] 45.6 µM | [4] 80.2 µM | [5] 12.8 µM | [6] > 100 µM | [16] > 100 µM | [7] 52.6 µM | [8] 55 µM | [17] 27.7 µM | [9] 58.6 µM | [10] 37.6 µM | [11] 86.9 µM | [12] > 100 µM | [13] 63.2 µM | [14] > 100 µM | [15] > 100 µM

C=CCOC(=O)C1CCC(=O)N1C(=O)C(Cl)Cl (configuration not stated)
inactive: [1] > 100 µM | [2] > 100 µM | [3] > 100 µM | [4] > 100 µM | [6] > 100 µM | [16] > 100 µM | [7] > 100 µM | [8] > 100 µM | [17] > 100 µM | [9] > 100 µM | [10] > 100 µM | [11] > 100 µM | [12] > 100 µM | [13] > 100 µM | [14] > 100 µM | [15] > 100 µM

O=C(CC1(O)C(=O)Nc2ccccc21)c1ccc(Cl)c(Cl)c1 (configuration not stated)
inactive: [1] > 100 µM | [2] > 100 µM | [3] > 100 µM | [4] > 100 µM | [5] > 100 µM | [6] > 100 µM | [16] 69.3 µM | [7] > 100 µM | [17] > 100 µM | [9] > 100 µM | [10] > 100 µM | [11] > 100 µM | [12] > 100 µM | [13] 63.8 µM | [14] > 100 µM

NN/C(Cc1ccccc1)=N\NO
inactive: [3] > 100 µM | [6] > 100 µM | [16] > 100 µM | [8] > 100 µM | [17] > 100 µM | [9] 69.3 µM | [10] 47.2 µM | [11] > 100 µM | [12] > 100 µM | [13] 39.8 µM | [14] > 100 µM | [15] 17.4 µM

CC[C@@H]1C[C@H]2CC3c4[nH]c5ccc(O)cc5c4CCN(C2)C31
inactive: [1] > 100 µM | [2] > 100 µM | [3] > 100 µM | [5] > 100 µM | [6] > 100 µM | [16] > 100 µM | [7] > 100 µM | [8] > 100 µM | [17] 36.8 µM | [9] > 100 µM | [10] > 100 µM | [11] > 100 µM | [12] > 100 µM | [13] > 100 µM | [15] > 100 µM
